In ChEMBL document CHEMBL1201862, “PubChem BioAssay data set” (2004):
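Compound exposure: 48 hours, 5 concentrations, 96-well plates. GI50: concentration for 50% inhibition of growth.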 Active and inactive are the calls of the source. No stated cut-off is given here; in the data, active = GI50 up to about 1.1 µM and inactive = higher. Where a SMILES comes first, the peptide text is derived from it. [ ]: non-standard residue; d: D form. The star is where a group is joined. Cbz = O=C(OCc1ccccc1)*; Aib = CC(C)(N)C(=O)O

Key:
Assay in all cases: growth of human tumour cells (NCI), 48 h
[1] = test system: DU-145
[2] = test system: SN12C
[3] = test system: OVCAR-5
[4] = test system: A549
[5] = test system: Hs-578T
[6] = test system: T47D
[7] = test system: SNB-19
[8] = test system: UACC-257
[9] = test system: MDA-N
[10] = test system: MCF7
[11] = test system: OVCAR-3
[12] = test system: SNB-75
[13] = test system: SK-MEL-2
[14] = test system: A498
[15] = test system: SK-MEL-28
[16] = test system: HCT-116
[17] = test system: MDA-MB-435
[18] = test system: U-251
[19] = test system: OVCAR-4
[20] = test system: HOP-92

Row | Structure (SMILES) | GI50 [1] | GI50 [2] | GI50 [3] | GI50 [4] | GI50 [5] | GI50 [6] | GI50 [7] | GI50 [8] | GI50 [9] | GI50 [10] | GI50 [11] | GI50 [12] | GI50 [13] | GI50 [14] | GI50 [15] | GI50 [16] | GI50 [17] | GI50 [18] | GI50 [19] | GI50 [20]
1 | CC(C)(NC(=O)C(C)(C)NC(=O)OCc1ccccc1)C(=O)O (Cbz-[Aib]-[Aib]-OH) | > 100 µM (inactive) | > 100 µM (inactive) | > 100 µM (inactive) | > 100 µM (inactive) | > 100 µM (inactive) | > 100 µM (inactive) | > 100 µM (inactive) | > 100 µM (inactive) | > 100 µM (inactive) | > 100 µM (inactive) | > 100 µM (inactive) | > 100 µM (inactive) | > 100 µM (inactive) | > 100 µM (inactive) | > 100 µM (inactive) | > 100 µM (inactive) | > 100 µM (inactive) | > 100 µM (inactive) | > 100 µM (inactive) | > 100 µM (inactive)
2 | CCN(CC)CCOCCOCC1(c2ccc(Cl)c(Cl)c2)CCCCC1 | 8.71 µM (inactive) | 11.9 µM (inactive) | 11.5 µM (inactive) | 10.9 µM (inactive) | 2.96 µM (inactive) | 3.48 µM (inactive) | 13.4 µM (inactive) | 2.88 µM (inactive) | 3.65 µM (inactive) | 6.34 µM (inactive) | 8.67 µM (inactive) | 7.64 µM (inactive) | 14.9 µM (inactive) | 13.1 µM (inactive) | 5.22 µM (inactive) | 5.82 µM (inactive) | 4 µM (inactive) | 9.25 µM (inactive) | 12.6 µM (inactive) | 6.14 µM (inactive)
3 | Cc1nc(Nc2ccc(Cl)c(Cl)c2)sc1C(/C=C/c1ccc2c(c1)OCO2)=N/Nc1ccc([N+](=O)[O-])cc1[N+](=O)[O-] | > 100 µM (inactive) | > 100 µM (inactive) | > 100 µM (inactive) | > 100 µM (inactive) | > 74.5 µM (inactive) | > 100 µM (inactive) | 48.1 µM (inactive) | > 100 µM (inactive) | > 100 µM (inactive) | > 100 µM (inactive) | > 100 µM (inactive) | 13.2 µM (inactive) | > 100 µM (inactive) | > 50.9 µM (inactive) | > 100 µM (inactive) | 56.5 µM (inactive) | > 100 µM (inactive) | 41.1 µM (inactive) | > 100 µM (inactive) | 85.1 µM (inactive)
4 | CN(CCCN(C)CCc1ccc(Cl)c(Cl)c1)CCCN1CCCC1 | 8.71 µM (inactive) | 3.12 µM (inactive) | 3.3 µM (inactive) | 2.97 µM (inactive) | 1.48 µM (inactive) | 2.34 µM (inactive) | 3.61 µM (inactive) | 1.83 µM (inactive) | 1.31 µM (inactive) | 1.78 µM (inactive) | 3.72 µM (inactive) | 2.72 µM (inactive) | 1.83 µM (inactive) | 1.76 µM (inactive) | 1.5 µM (inactive) | 1.73 µM (inactive) | 0.531 µM (active) | 1.92 µM (inactive) | 7.28 µM (inactive) | 2.13 µM (inactive)
5 | NC(=S)N1N=C(c2ccccc2O)CC1c1ccccc1 (stereo not given) | 27 µM (inactive) | 13.8 µM (inactive) | 17.9 µM (inactive) | 16 µM (inactive) | 20.7 µM (inactive) | 17.6 µM (inactive) | 23.3 µM (inactive) | 15.3 µM (inactive) | 2.83 µM (inactive) | 4.45 µM (inactive) | 10.5 µM (inactive) | 16.9 µM (inactive) | 5.25 µM (inactive) | 11.9 µM (inactive) | 18.5 µM (inactive) | 12.8 µM (inactive) | 3.02 µM (inactive) | 16.8 µM (inactive) | 18.2 µM (inactive) | 17.1 µM (inactive)
6 | Cc1cc(S(=O)(=O)Nc2nnc3c(C(F)(F)F)cc(Cl)cn23)c(S)cc1Cl | > 100 µM (inactive) | > 100 µM (inactive) | > 100 µM (inactive) | > 100 µM (inactive) | > 100 µM (inactive) | 70.5 µM (inactive) | 38.2 µM (inactive) | > 100 µM (inactive) | > 100 µM (inactive) | > 100 µM (inactive) | 89.5 µM (inactive) | 90.8 µM (inactive) | 64.4 µM (inactive) | > 100 µM (inactive) | > 100 µM (inactive) | 57.9 µM (inactive) | 76 µM (inactive) | 46.6 µM (inactive) | 40.3 µM (inactive) | > 100 µM (inactive)
7 | NC(CSS(=O)(=O)c1ccccc1)C(=O)O (stereo not given) | > 10 µM (inactive) | > 10 µM (inactive) | > 10 µM (inactive) | > 10 µM (inactive) | > 10 µM (inactive) | > 10 µM (inactive) | > 10 µM (inactive) | > 10 µM (inactive) | > 10 µM (inactive) | > 10 µM (inactive) | > 10 µM (inactive) | > 10 µM (inactive) | > 10 µM (inactive) | > 10 µM (inactive) | > 10 µM (inactive) | > 10 µM (inactive) | > 10 µM (inactive) | > 10 µM (inactive) | > 10 µM (inactive) | > 10 µM (inactive)
8 | COC[C@@H](/N=C/C(C)(C)C)C(C)C | > 100 µM (inactive) | > 100 µM (inactive) | > 100 µM (inactive) | > 100 µM (inactive) | > 100 µM (inactive) | > 100 µM (inactive) | > 100 µM (inactive) | 67.3 µM (inactive) | > 100 µM (inactive) | > 100 µM (inactive) | > 100 µM (inactive) | > 100 µM (inactive) | > 100 µM (inactive) | > 100 µM (inactive) | > 100 µM (inactive) | > 100 µM (inactive) | > 100 µM (inactive) | > 100 µM (inactive) | > 100 µM (inactive) | > 100 µM (inactive)
9 | CC[C@H](C)[C@H](NC(=O)N(CCC#N)CCN(CCN(C(=O)N[C@@H](Cc1ccccc1)C(=O)OC)c1ccccc1)C(=O)N[C@H](C(=O)OC)C(C)C)C(=O)OC | 20 µM (inactive) | 25.6 µM (inactive) | 25 µM (inactive) | 32.7 µM (inactive) | 23.7 µM (inactive) | 14.3 µM (inactive) | 15.2 µM (inactive) | 13.5 µM (inactive) | 16.5 µM (inactive) | 27.5 µM (inactive) | 17.4 µM (inactive) | 19.9 µM (inactive) | 20 µM (inactive) | 19.6 µM (inactive) | 15 µM (inactive) | 19.2 µM (inactive) | 16.6 µM (inactive) | 16.2 µM (inactive) | 22.4 µM (inactive) | 6.24 µM (inactive)
10 | Cc1cc(Cc2c(F)c(F)c(Cc3cc(C)no3)c(F)c2F)on1 | > 100 µM (inactive) | > 100 µM (inactive) | > 100 µM (inactive) | 12.9 µM (inactive) | 29.9 µM (inactive) | > 100 µM (inactive) | 36.7 µM (inactive) | > 100 µM (inactive) | > 100 µM (inactive) | > 100 µM (inactive) | > 100 µM (inactive) | 29 µM (inactive) | 32.7 µM (inactive) | > 100 µM (inactive) | > 100 µM (inactive) | > 100 µM (inactive) | > 100 µM (inactive) | 64.1 µM (inactive) | > 100 µM (inactive) | 29 µM (inactive)
11 | CCCCCC(/C=C/C1CCC(=O)C1CC#C[Si](C)(C)C)OCc1ccccc1 (stereo not given) | 31.8 µM (inactive) | 19.8 µM (inactive) | 19.9 µM (inactive) | 21.5 µM (inactive) | 17.9 µM (inactive) | 23.2 µM (inactive) | 28.4 µM (inactive) | 17.2 µM (inactive) | 21.1 µM (inactive) | 19.1 µM (inactive) | 17.5 µM (inactive) | 16.6 µM (inactive) | 15.5 µM (inactive) | 36.3 µM (inactive) | 23 µM (inactive) | 15.8 µM (inactive) | 19.9 µM (inactive) | 19 µM (inactive) | 26.9 µM (inactive) | 12.1 µM (inactive)
12 | CN(C)/C=N/Cc1ccc2c(c1)OCO2 | > 100 µM (inactive) | > 100 µM (inactive) | > 100 µM (inactive) | > 100 µM (inactive) | > 100 µM (inactive) | > 100 µM (inactive) | > 100 µM (inactive) | > 100 µM (inactive) | > 100 µM (inactive) | > 100 µM (inactive) | > 100 µM (inactive) | > 100 µM (inactive) | > 100 µM (inactive) | > 100 µM (inactive) | > 100 µM (inactive) | > 100 µM (inactive) | > 100 µM (inactive) | > 100 µM (inactive) | > 100 µM (inactive) | > 100 µM (inactive)
13 | COc1cc2c(cc1OC)C13CCN4C=C5CCOC6CC(=O)N2C1C6C5CC43 (stereo not given) | > 100 µM (inactive) | > 100 µM (inactive) | > 100 µM (inactive) | > 100 µM (inactive) | > 100 µM (inactive) | > 100 µM (inactive) | > 100 µM (inactive) | > 100 µM (inactive) | > 100 µM (inactive) | > 100 µM (inactive) | > 100 µM (inactive) | > 100 µM (inactive) | > 100 µM (inactive) | > 100 µM (inactive) | > 100 µM (inactive) | > 100 µM (inactive) | > 100 µM (inactive) | > 100 µM (inactive) | > 100 µM (inactive) | > 100 µM (inactive)
14 | O=c1cc(N2CCCC2)[nH]c(=O)n1-c1ccc(F)cc1 | > 100 µM (inactive) | > 100 µM (inactive) | > 100 µM (inactive) | > 100 µM (inactive) | > 100 µM (inactive) | > 100 µM (inactive) | > 100 µM (inactive) | > 100 µM (inactive) | > 100 µM (inactive) | > 100 µM (inactive) | > 100 µM (inactive) | > 100 µM (inactive) | > 100 µM (inactive) | > 100 µM (inactive) | > 100 µM (inactive) | > 100 µM (inactive) | > 100 µM (inactive) | > 100 µM (inactive) | > 100 µM (inactive) | > 100 µM (inactive)
